Like-named read-outs stand apart in the source and are kept apart here.
Legend:
[1] = test system: inflammatory muscle tissue; conditions: cited from earlier work
[2] = test system: 786-O/luc cells; experiment: in vitro uptake of [F-18]-D-FMT into 786-O/luc cells; assay type: cell-based, human; conditions: after 30 min
[3] = test system: 786-O bone metastases; experiment: PET/CT imaging in 786-O/luc bone metastasis mouse model; conditions: for accumulation in bone metastases / osteolytic lesions: [F-18]-fluoride day 51, [F-18]-D-FMT day 65
Experimental: 786-O/luc cells and the MDA-MB231SA/luc cells were harvested from subconfluent cell culture flasks and resuspended in PBS (Biochrom AG) to a final concentration of 5×10^5 cells/100 μl. For intracardiac inoculations, 5-week-old female athymic nude mice (Harlan-Winkelmann GmbH, Borchen, Germany) were anesthetized with an intraperitoneal injection of 5% Rompun (Bayer HealthCare AG, Leverkusen, Germany)/10% Ketavet (Pfizer, Karlsruhe, Germany) in 0.9% NaCl at a dose of 0.1 ml/10 g body weight. Using an insulin syringe (BD Micro-Fine+Demi U-100, Becton Dickinson GmbH, Heidelberg, Germany), 5×10^5 786-O/luc cells in 100 μl PBS were inoculated into the left cardiac ventricle (i.c.) of anesthetized mice. Experiments were approved by the governmental review committee on animal care.
10 to 12 MBq [F-18]-fluoride or [F-18]-D-FMT were injected i.v. into the tail vein. 60 min after injection anesthesia was induced by isoflurane/O2 and twenty-minute micro-PET/computed tomography (CT) scans were obtained using an Inveon micro PET/CT scanner (Siemens).
51 days after the inoculation of the 786-O/luc cells into the mice, PET/CT imaging was performed with [F-18]-fluoride (FIG. 1 right side). […] The same mouse was imaged 2 weeks later (day 65) with [F-18]-D-FMT (FIG. 1 left side).

[4] = test system: MDA-MB231SA bone metastases; experiment: PET/CT imaging in MDA-MB231SA/luc bone metastasis mouse model; assay type: in vivo; conditions: PET/CT 25 days after inoculation
Excerpt: To conclude, [F-18]-D-FMT is useful for the detection of bone metastases.

[5] = in vivo; cited from earlier work

Compound	uptake in inflammatory muscle tissue ([1]; Turpentine-induced inflammation)	uptake into the 786-O/luc cells [2] [% applied dose/10^6 cells]	uptake into regenerating and remineralizing bone / detection of osteoblastic activity [3]	uptake into the healthy bone ([3]; 60 min after i.v. injection)	accumulation in bone metastases / osteolytic lesions [3]	uptake into the bone metastases [4]	uptake in inflammatory muscle tissue ([1]; in vivo)	blood-borne tracer carried in red cells [5]
N[C@H](Cc1ccc(OC[18F])cc1)C(=O)O [[F-18]-D-FMT, (R)-2-amino-3-(4[F-18]fluoromethoxy-phenyl)-propionic acid]	no uptake	12.8	not detected	no uptake	accumulated in all bone metastases imaged by [F-18]-fluoride	showed uptake into the bone metastases	–	–
18F-fluorodeoxyglucose [FDG, reference compound]	–	–	–	–	–	–	taken up	–
[18FH] [[F-18]-fluoride, reference compound]	–	–	unspecific uptake	–	high accumulation in multiple osteolytic lesions	–	–	approximately 30%

— patent US20130028838A1, “F18-TYROSINE DERIVATIVES FOR IMAGING BONE METASTASES” (PIRAMAL IMAGING SA, priority 2010, published 2013)
